Values joined by “and” are separate entries in the source; they are usually repeats but may differ in a detail not shown here. Equal entries are not always repeated.
How the values were obtained:
human TRPA1 = target: T1, human TRPA1 (Homo sapiens, UniProt O75762); test: Calcium 5 dye [Ca]i assay in HEK-293 Flp-In T-REx cells expressing TRPA1 (agonist response); type: cell-based; details: for [Ca]i response (change in fluorescence), individual replicates: sheet Figure 3(E)
T1 construct: Life Technologies (cells); host or cells: Flp-In T-REx HEK-293
T1 sequence (O75762 whole entry): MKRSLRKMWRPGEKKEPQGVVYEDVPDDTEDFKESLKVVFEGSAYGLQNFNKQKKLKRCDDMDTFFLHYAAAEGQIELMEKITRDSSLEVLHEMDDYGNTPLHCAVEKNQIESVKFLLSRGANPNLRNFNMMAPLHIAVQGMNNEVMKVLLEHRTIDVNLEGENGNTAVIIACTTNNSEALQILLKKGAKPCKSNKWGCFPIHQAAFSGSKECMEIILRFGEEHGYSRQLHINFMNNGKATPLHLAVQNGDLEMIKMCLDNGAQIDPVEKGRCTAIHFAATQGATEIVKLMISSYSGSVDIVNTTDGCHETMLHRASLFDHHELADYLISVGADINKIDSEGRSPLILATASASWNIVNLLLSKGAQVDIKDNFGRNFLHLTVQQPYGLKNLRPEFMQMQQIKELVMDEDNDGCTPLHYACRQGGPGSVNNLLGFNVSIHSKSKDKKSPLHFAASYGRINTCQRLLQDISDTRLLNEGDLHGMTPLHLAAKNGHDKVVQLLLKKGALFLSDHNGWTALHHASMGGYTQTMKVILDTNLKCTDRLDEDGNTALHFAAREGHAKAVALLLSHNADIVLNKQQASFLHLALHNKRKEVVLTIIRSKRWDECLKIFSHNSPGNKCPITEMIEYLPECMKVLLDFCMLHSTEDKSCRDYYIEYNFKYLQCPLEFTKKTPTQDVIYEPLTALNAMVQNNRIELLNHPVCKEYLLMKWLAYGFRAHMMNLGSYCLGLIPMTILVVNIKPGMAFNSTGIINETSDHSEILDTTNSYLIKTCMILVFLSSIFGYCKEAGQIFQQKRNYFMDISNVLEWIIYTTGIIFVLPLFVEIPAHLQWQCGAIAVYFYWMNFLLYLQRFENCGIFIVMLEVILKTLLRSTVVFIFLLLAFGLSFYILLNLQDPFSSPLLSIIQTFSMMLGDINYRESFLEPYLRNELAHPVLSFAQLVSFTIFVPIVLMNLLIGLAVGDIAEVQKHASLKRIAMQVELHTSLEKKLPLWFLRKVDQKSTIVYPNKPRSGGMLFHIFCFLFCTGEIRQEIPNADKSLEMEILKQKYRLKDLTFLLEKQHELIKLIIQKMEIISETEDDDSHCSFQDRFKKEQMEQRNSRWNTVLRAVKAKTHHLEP
Experimental: (§1) The cells were incubated in a 5% CO2 humidified atmosphere at 37 °C. Upon reaching approximately 90% confluence in 75 cm^2 flasks, they were trypsinized and transferred to poly-D-lysine coated 96-well plates (Corning, Castle Hill, NSW, Australia) in L-15 medium supplemented with 1% FBS, 100 U penicillin and 100 µg streptomycin ml^−1 (1% P/S), and 15 mM glucose (80 µL volume per well). After an overnight incubation (maximum of 16 h) in humidified room air at 37 °C, TRPV1 and TRPA1 receptor expression was induced 4 h before experimentation by adding to each well 10 µL tetracycline solution to a final concentration of 1 µg ml^−1.
(§2) Intracellular calcium [Ca]i levels were assessed using the calcium 5 kit from Molecular Devices (# R8186, Sunnyvale, CA, USA) on a FlexStation 3 Microplate Reader (Molecular Devices, Sunnyvale, CA, USA). […] Probenecid (cat # 50027; Biotium) which helps to prevent expulsion of calcium indicator from the cells was added to a final concentration of 1.25 mM. 90 µL of the dye were loaded into each well of the plate and incubated for 1 h before reading in the FlexStation 3 at 37 °C. Fluorescence was recorded every 2 s (λ excitation = 485 nm, λ emission = 525 nm) for 5 min. After 1 min of baseline recording, 20 µL of the drug, dissolved in HBSS with 1% dimethyl sulfoxide (DMSO) (cat # D2650; Sigma-Aldrich, Melbourne, Australia) was added (final DMSO concentration was 0.1% in well).
(§3) The response to agonists was expressed as a percentage change from the average baseline measurement taken for 60s before adding drug. Changes in fluorescence resulting from the addition of solvent were subtracted before normalization to baseline. Concentration–response curves (CRC), Emax and EC50 values were determined using a three-parameter logistic equation (GraphPad Prism, San Diego, CA, USA). […] Potencies were expressed as pEC50, which is the negative log of EC50 in moles per litre (Molar). Where appropriate, unpaired Student’s t-test were used to compare the responses of individual compounds in different conditions, while a one-way ANOVA followed by Dunnett’s multiple comparisons test was used to assess potential differences in responses elicited by a range of compounds. P < 0.05 was considered statistically significant.

HEK-293 EV cells = test: Calcium 5 dye [Ca]i assay in HEK-293 empty vector (EV) cells; type: cell-based, human; details: 10 µM; HEK-293 EV cells; percentage of predrug baseline
Experimental: as §1
Intracellular calcium [Ca]i levels were assessed using the calcium 5 kit from Molecular Devices (# R8186, Sunnyvale, CA, USA) on a FlexStation 3 Microplate Reader (Molecular Devices, Sunnyvale, CA, USA). […] 90 µL of the dye were loaded into each well of the plate and incubated for 1 h before reading in the FlexStation 3 at 37 °C. […] After 1 min of baseline recording, 20 µL of the drug, dissolved in HBSS with 1% dimethyl sulfoxide (DMSO) (cat # D2650; Sigma-Aldrich, Melbourne, Australia) was added (final DMSO concentration was 0.1% in well).
as §3

human TRPV1 = target: T2, human TRPV1 (Homo sapiens, UniProt Q8NER1); test: Calcium 5 dye [Ca]i assay in HEK-293 Flp-In T-REx cells expressing TRPV1 (agonist response); type: cell-based; details: for Change in Ca5 fluorescence, individual experiments (CRC raw data): TRPV1 cells
T2 construct: Life Technologies (cells); host or cells: Flp-In T-REx HEK-293
T2 sequence (Q8NER1 whole entry): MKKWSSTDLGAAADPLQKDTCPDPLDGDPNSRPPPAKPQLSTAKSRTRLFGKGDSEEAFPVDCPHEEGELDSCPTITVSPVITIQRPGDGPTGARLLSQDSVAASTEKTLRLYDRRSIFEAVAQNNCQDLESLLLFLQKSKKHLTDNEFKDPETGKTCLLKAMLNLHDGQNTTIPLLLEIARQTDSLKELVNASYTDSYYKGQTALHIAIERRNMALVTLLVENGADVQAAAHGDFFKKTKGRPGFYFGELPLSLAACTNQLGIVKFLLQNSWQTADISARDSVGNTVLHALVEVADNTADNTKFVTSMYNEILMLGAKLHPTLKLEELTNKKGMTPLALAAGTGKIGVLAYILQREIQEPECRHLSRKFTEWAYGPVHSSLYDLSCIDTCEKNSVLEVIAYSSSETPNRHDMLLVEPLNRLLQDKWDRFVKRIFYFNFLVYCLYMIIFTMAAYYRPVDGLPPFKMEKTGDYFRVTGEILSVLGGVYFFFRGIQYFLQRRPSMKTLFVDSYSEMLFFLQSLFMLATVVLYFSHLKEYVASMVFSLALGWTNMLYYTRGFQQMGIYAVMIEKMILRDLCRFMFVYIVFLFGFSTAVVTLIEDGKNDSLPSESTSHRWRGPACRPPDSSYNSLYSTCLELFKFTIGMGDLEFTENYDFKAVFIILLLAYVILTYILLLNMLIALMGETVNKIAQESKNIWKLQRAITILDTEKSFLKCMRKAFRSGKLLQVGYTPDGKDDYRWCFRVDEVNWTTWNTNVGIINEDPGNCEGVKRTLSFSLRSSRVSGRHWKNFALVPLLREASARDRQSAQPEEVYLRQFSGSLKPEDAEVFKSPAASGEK
Experimental: as §1, §2, §3

CCCCC/C=C\C/C=C\C/C=C\C/C=C\CCCCOC(CO)CO [2-AG ether, 2-arachidonoylglycerol ether]
Elevation of [Ca]i in HEK-293 TRPA1 cells compared with HEK-293 EV cells (human TRPA1; 10 µM (cinnamaldehyde 300 µM)): did not produce a change
Change of Ca5 fluorescence, Mean ± SEM, TRPA1 (10 µM) (human TRPA1; 10 µM, HEK-293 TRPA1 cells, percentage of predrug baseline): 91 ± 40%
TRPA1 activation at the highest concentration tested (human TRPA1; 30 µM): activated TRPA1
TRPA1 response compared with the highest concentration of cinnamaldehyde (300 µM) (human TRPA1; 30 µM): significantly smaller
TRPA1 response, Mean± SEM (N) (human TRPA1; 30 µM, one-way ANOVA comparison with cinnamaldehyde 300 µM): 223 ± 60
[Ca]i response (change in fluorescence), individual replicates (human TRPA1; concentration -4.52288 (log)): 16.8824 and 397.614 and 5.373 and 104.863 and 520.454 and 293.014
[Ca]i response (change in fluorescence), individual replicates (human TRPA1; concentration -5 (log)): 6.439 and 205.99 and 4.156 and 6.3216 and 170.328 and 155.005
[Ca]i response (change in fluorescence), individual replicates (human TRPA1; concentration -5.52288 (log)): 2.263 and 3.295 and 6.759 and 5.886 and 11.1841 and 49.3437
[Ca]i response (change in fluorescence), individual replicates (human TRPA1; concentration -6 (log)): 11.4488 and 1.879 and 1.228 and 4.253 and 4.557 and 3.684
[Ca]i response (change in fluorescence), individual replicates (human TRPA1; concentration -6.52288 (log)): 9.48 and 8.5131 and 4.1 and 4.971 and 4.357 and 3.125
[Ca]i response (change in fluorescence), individual replicates (human TRPA1; concentration -7 (log)): 0.2809 and 4.873 and 5.959 and 5.37 and 6.745 and 2.857
Emax ± SEM % TRPA1 (30 µM) (human TRPA1; highest tested concentration (30 µM) or derived from concentration-response curves (cinnamaldehyde)): 223 ± 87%
Change of Ca5 fluorescence, Mean ± SEM, EV (10 µM) (HEK-293 EV cells): 8 ± 2%
Elevation of [Ca]i in HEK-293 TRPV1 cells compared with HEK-293 EV cells (human TRPV1; 10 µM): did not produce a notable change
Change of Ca5 fluorescence, Mean ± SEM, TRPV1 (10 µM) (human TRPV1; 10 µM, HEK-293 TRPV1 cells, percentage of predrug baseline): 39 ± 24%
TRPV1 response, Mean± SEM (N) (human TRPV1; 30 µM, one-way ANOVA comparison with capsaicin 10 µM): 63± 56
Emax ± SEM % TRPV1 (30 µM) (human TRPV1; highest tested concentration (30 µM) or derived from concentration-response curves (DHEA, AEA, NADA, capsaicin)): 63 ± 23%
Change in Ca5 fluorescence, individual experiments (CRC raw data) (human TRPV1; log concentration -4.52288 (M)): 153.653 and 87.759 and 41.6511 and 12.8054 and 5.8133 and 75.505
Change in Ca5 fluorescence, individual experiments (CRC raw data) (human TRPV1; log concentration -5 (M)): 155.318 and 30.8581 and 23.9661 and 3.174 and 0.3103 and 20.3939
Change in Ca5 fluorescence, individual experiments (CRC raw data) (human TRPV1; log concentration -5.52288 (M)): 16.5791 and 3.033 and 7.578 and 1.888 and 0.6433 and 11.7313
Change in Ca5 fluorescence, individual experiments (CRC raw data) (human TRPV1; log concentration -6 (M)): 7.918 and 3.6522 and 9.605 and 2.557 and 2.906 and 1.314
Change in Ca5 fluorescence, individual experiments (CRC raw data) (human TRPV1; log concentration -6.52288 (M)): 3.121 and 1.724 and 12.4457 and 2.326 and 0.7415 and 2.165
Change in Ca5 fluorescence, individual experiments (CRC raw data) (human TRPV1; log concentration -7 (M)): 2.256 and 4.13 and 8.499 and 1.026 and 2.717 and 1.813

— publication PMC11949107, “Polyunsaturated fatty acids and their endocannabinoid-related metabolites activity at human TRPV1 and TRPA1 ion channels expressed in HEK-293 cells” (PeerJ, 2025)
